Test system: summer wheat of the cultivar 'Triso'
Experiment: Plant growth regulation test: culm stabilization of crop plants
Assay type: in vivo
Details: application rate of 30 to 300 g of active substance per hectare, treated at stage BBCH 31, culm length measured after ears had formed
Description: With stirring, the compound of the formula (I) in question was, in the form of a water-dispersible powder, together with a surfactant (customary adjuvant at an application rate of 1 l/ha), mixed with water such that a homogenous spray liquor was formed, and applied at an application rate of 300 l of water/ha (converted).
Seeds of summer wheat of the cultivar ‘Triso’ were sown at a depth of 1 cm in plant pots and cultivated outdoors until treatment.
The plants were treated on a laboratory track sprayer with spray liquors of the test substances at macrostage 3 after having reached about 10% of the maximum longitudinal growth typical for the cultivar (stage BBCH 31) and, after the treatment, returned outdoors.
After the ears had formed, the length of the culms were measured. The culm stabilization was evaluated as a percentage of the untreated control.

SMILES	longitudinal growth (culm length) of summer wheat
CCOC(=O)Cc1c(C)nn(-c2cnccc2C)c1-c1ccc(Cl)cc1 [Example 3-1]	effectively shortened
COC(=O)Cc1c(C)nn(-c2cnccc2C)c1-c1ccc(OC)cc1 [Example 2-13]	effectively shortened
CC(C)=CCOC(=O)Cc1c(C)nn(-c2cccnc2)c1-c1ccccc1 [Example 3-152]	effectively shortened
C#CCOC(=O)Cc1c(C)nn(-c2cccnc2)c1-c1ccncc1 [Example 3-74]	effectively shortened
CC#CCOC(=O)Cc1c(C)nn(-c2cnccc2C)c1-c1ccccc1 [Example 3-139]	effectively shortened
Cc1ccncc1-n1ncc(CC(=O)O)c1-c1ccccc1 [Example 1-73]	effectively shortened
COC(=O)Cc1c(C)nn(-c2cccnc2)c1-c1ccc(C)cn1 [Example 2-113]	effectively shortened
Cc1nn(-c2cccnc2)c(-c2ccccc2)c1CC(=O)OCC1CCCC1 [Example 3-172]	effectively shortened
Cc1nn(-c2cnccc2C(F)(F)F)c(-c2ccccc2)c1CC(=O)O [Example 1-8]	effectively shortened
COC(=O)Cc1c(C)nn(-c2cnccc2C)c1-c1cccc(Br)c1 [Example 2-40]	effectively shortened
C=C(Cl)COC(=O)Cc1c(C)nn(-c2cccnc2)c1-c1cc(C)cs1 [Example 3-189]	effectively shortened
Cc1nn(-c2cccnc2)c(-c2ccc(C(F)(F)F)cn2)c1CC(=O)O [Example 1-144]	effectively shortened
Cc1nn(-c2cccnc2)c(-c2ccc(Cl)cc2)c1CC(=O)OC1COC1 [Example 3-232]	effectively shortened
COC(=O)Cc1c(C)nn(-c2cnccc2C)c1-c1cccc(C(F)(F)F)c1 [Example 2-19]	effectively shortened
C=C(Cl)COC(=O)Cc1c(C)nn(-c2cccnc2)c1-c1ccc(C)s1 [Example 3-191]	effectively shortened
C=CCOC(=O)Cc1c(C)nn(-c2cccnc2)c1-c1ccccc1 [Example 3-148]	effectively shortened
COC(=O)Cc1c(C)nn(-c2cnccc2C)c1-c1cccc(C)c1 [Example 2-38]	effectively shortened
Cc1nn(-c2cccnc2)c(-c2ccccc2)c1CC(=O)OCC1CCC1 [Example 3-168]	effectively shortened
COC(=O)Cc1c(C)nn(-c2cnccc2C)c1-c1ccc(C)c(C)c1 [Example 2-116]	effectively shortened
COC(=O)Cc1c(C)nn(-c2cnccc2SC)c1-c1ccccc1 [Example 2-44]	effectively shortened
COC(=O)Cc1c(C)nn(-c2cccnc2)c1-c1ccccn1 [Example 2-109]	effectively shortened
COC(=O)Cc1c(C)nn(-c2cccnc2)c1-c1ccc(Cl)cc1Cl [Example 2-114]	effectively shortened

SMILES	longitudinal growth (culm length) of summer wheat
COC(=O)Cc1c(C)nn(-c2cnccc2C)c1-c1ccc2c(c1)OCO2 [Example 2-66]	effectively shortened
COC(=O)Cc1c(C)nn(-c2cncc(C)c2)c1-c1ccccc1 [Example 2-50]	effectively shortened
Cc1ccncc1-n1nc(C)c(CC(=O)O)c1-c1ccc(Cl)cc1Cl [Example 1-23]	effectively shortened
Cc1nn(-c2cccnc2)c(-c2ccccn2)c1CC(=O)O [Example 1-109]	effectively shortened
CC#CCOC(=O)Cc1c(C)nn(-c2cccnc2)c1-c1ccccc1 [Example 3-117]	effectively shortened
COC(=O)Cc1c(C)nn(-c2cnccc2OC)c1-c1ccc(Cl)cc1 [Example 2-35]	effectively shortened
Cc1nn(-c2cccnc2)c(-c2cccs2)c1CC(=O)O [Example 1-57]	effectively shortened
COC(=O)Cc1c(C)nn(-c2cnccc2C)c1-c1ccsc1 [Example 2-56]	effectively shortened
Cc1nn(-c2cccnc2)c(-c2ccccc2)c1CC(=O)OCC1CC1(Cl)Cl (centres unmarked) [Example 3-113]	effectively shortened
C=C(Cl)COC(=O)Cc1cnn(-c2cccnc2)c1-c1ccccc1 [Example 3-207]	effectively shortened
COc1ccncc1-n1nc(C)c(CC(=O)O)c1-c1ccc(Cl)cc1 [Example 1-35]	effectively shortened
Cc1nn(-c2cccnc2)c(-c2ccccc2Cl)c1CC(=O)O [Example 1-31]	effectively shortened
Cc1nn(-c2cnccc2Cl)c(-c2ccc(Cl)cc2)c1CC(=O)O [Example 1-29]	effectively shortened
Cc1nn(-c2cccnc2)c(-c2ccc(Cl)cn2)c1CC(=O)O [Example 1-110]	effectively shortened
Cc1nn(-c2cccnc2)c(-c2ccc(Cl)cc2)c1CC(=O)OCC1CC1 [Example 3-78]	effectively shortened
COC(=O)Cc1c(C)nn(-c2cccnc2)c1-c1ccc(OC)nc1 [Example 2-62]	effectively shortened
COC(=O)Cc1c(C)nn(-c2cnccc2C)c1-c1ccccc1Cl [Example 2-22]	effectively shortened
COC(=O)Cc1c(C)nn(-c2cccnc2)c1-c1ccc(C)s1 [Example 2-61]	effectively shortened
COC(=O)Cc1c(C)nn(-c2cnccc2C)c1-c1sccc1C [Example 2-53]	effectively shortened
COC(=O)Cc1c(C)nn(-c2cccnc2)c1-c1ccc(C(C)(C)C)cc1 [Example 2-122]	effectively shortened
Cc1ccncc1-n1nc(C)c(CC(=O)O)c1-c1ccsc1 [Example 1-56]	effectively shortened
COC(=O)Cc1c(CO)nn(-c2cccnc2)c1-c1ccc(Cl)cc1 [Example 2-184]	effectively shortened

SMILES	longitudinal growth (culm length) of summer wheat
COC(=O)Cc1c(C)nn(-c2cnccc2C)c1-c1cccs1 [Example 2-52]	effectively shortened
COCCOC(=O)Cc1c(C)nn(-c2cccnc2)c1-c1ccc(Cl)cc1 [Example 3-229]	effectively shortened
COC(=O)Cc1c(C)nn(-c2cnccc2SC)c1-c1ccc(Cl)cc1 [Example 2-45]	effectively shortened
CCc1nn(-c2cccnc2)c(-c2ccccc2)c1CC(=O)OC [Example 2-74]	effectively shortened
Cc1ccncc1-n1nc(C)c(CC(=O)O)c1-c1ccccc1Cl [Example 1-22]	effectively shortened
Cc1nn(-c2cccnc2)c(-c2ccc(O)nc2)c1CC(=O)OCC1CC1 [Example 3-87]	effectively shortened
Cc1ccncc1-n1nc(C)c(CC(=O)O)c1-c1ccc(Cl)s1 [Example 1-55]	effectively shortened
COC(=O)Cc1c(C)nn(-c2cnccc2C)c1-c1ccc(Cl)c(Cl)c1 [Example 2-20]	effectively shortened
COC(=O)Cc1c(C)nn(-c2cnccc2C)c1-c1ccc(C)cc1 [Example 2-36]	effectively shortened
COC(=O)Cc1c(C)nn(-c2cccnc2)c1-c1ccc(Cl)cn1 [Example 2-110]	effectively shortened
Cc1ccncc1-n1nc(C)c(CC(=O)O)c1-c1ccc(C(C)(C)C)cc1 [Example 1-32]	effectively shortened
CCOC(=O)Cc1c(C)nn(-c2cccnc2)c1-c1ccccn1 [Example 3-227]	effectively shortened
Cc1nn(-c2cccnc2)c(-c2ccc(C(F)(F)F)cc2)c1CC(=O)O [Example 1-28]	effectively shortened
Cc1nn(-c2cccnc2)c(-c2ccc(Cl)cc2)c1CC(=O)O [Example 1-26]	effectively shortened
COC(=O)Cc1c(C)nn(-c2cnccc2C)c1-c1cc(Cl)cc(Cl)c1 [Example 2-68]	effectively shortened
COC(=O)Cc1c(C)nn(-c2cccnc2)c1-c1cc(C)ccn1 [Example 2-136]	effectively shortened
COC(=O)Cc1c(C(F)F)nn(-c2cccnc2)c1-c1ccccc1 [Example 2-79]	effectively shortened
Cc1nn(-c2ccc(C(F)(F)F)nc2)c(-c2ccccc2)c1CC(=O)O [Example 1-9]	effectively shortened
COc1ccc(-c2c(CC(=O)O)c(C)nn2-c2cccnc2)cn1 [Example 1-62]	effectively shortened
Cc1ccnc(-c2c(CC(=O)O)c(C)nn2-c2cnccc2C)c1 [Example 1-137]	effectively shortened
Cc1nn(-c2cccnc2)c(-c2cccc(C(F)(F)F)c2)c1CC(=O)O [Example 1-18]	effectively shortened

— US8252723B2, “Substituted 1-(3-pyridinyl)pyrazol-4-ylacetic acids, processes for their preparation and their use as herbicides and plant growth regulators” (Bayer CropScience AG, priority 2006, dated 2012)
